Reference: patent US20160296499A1, “Spiroindoline Antiparasitic Derivatives” (ZOETIS SERVICES LLC, priority 2013, published 2016)
Where two headings read alike, the source gives them in different places.

Tests used:
Haemonchus contortus L3 = experiment: Haemonchus contortus, Larvae Stage 3 (HcL3) In Vitro Assay; conditions: Haemonchus contortus
[1] = system: Dirofilaria immitis microfilariae; experiment: Dirofilaria immitis, Microfilariae (DiMF) In Vitro Assay
[2] = target: T1, bovine vesicular acetylcholine transporter (VAChT) (Bos taurus, UniProt E1BK36); experiment: Radioligand Binding Assay; conditions: Bovine binding Ki, CHO-K1 membranes with recombinant bovine VAChT, [3H]Compound X6 0.3 nM
T1 sequence (E1BK36 1-524): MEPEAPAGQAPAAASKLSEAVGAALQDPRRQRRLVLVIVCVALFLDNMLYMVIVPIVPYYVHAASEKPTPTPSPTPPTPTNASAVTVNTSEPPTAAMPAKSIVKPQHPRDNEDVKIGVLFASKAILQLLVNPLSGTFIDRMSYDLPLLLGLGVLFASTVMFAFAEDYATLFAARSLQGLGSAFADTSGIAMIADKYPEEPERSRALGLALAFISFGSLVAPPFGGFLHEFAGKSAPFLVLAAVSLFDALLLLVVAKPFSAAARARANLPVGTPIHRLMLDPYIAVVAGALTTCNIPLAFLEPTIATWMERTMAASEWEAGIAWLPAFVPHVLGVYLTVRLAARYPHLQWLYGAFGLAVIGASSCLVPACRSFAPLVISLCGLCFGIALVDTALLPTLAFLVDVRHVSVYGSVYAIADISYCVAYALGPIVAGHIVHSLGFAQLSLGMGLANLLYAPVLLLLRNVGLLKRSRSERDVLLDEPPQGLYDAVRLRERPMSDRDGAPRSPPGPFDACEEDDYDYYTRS

[3] = 96 hours, 37° C., read-out: HcL3 MEC
[4] = Dirofilaria immitis, 72 hours, read-out: Di MF
[5] = 96 h, read-out: HcL3 MEC, Minimal Effective Concentration whereby worm motility is inhibited by approximately 70%, 37° C., tested 0.001-100 μM
[6] = Dirofilaria immitis, 72 h, read-out: Di MF, MEC, decrease in microfilariae motility by visual assessment, curve starting at 100 μM

Compound	minimal effective concentration (Haemonchus contortus L3; [3])	minimal effective concentration [1, 4]	Ki [2]	minimal effective concentration (Haemonchus contortus L3; [5])	minimal effective concentration [1, 6]	minimal effective concentration ([1]; MEC, decrease in microfilariae motility by visual assessment, 72 hours, curve starting at 100 μM, read-out: Di MF)
Cn1nccc1CNC(=O)N1CC2(CCN(C/C=C/c3ccc(Cl)c(Cl)c3)CC2)c2c1ccc1scnc21 [Example 27, (E)-1-(3-(3,4-dichlorophenyl)allyl)-N-((1-methyl-1H-pyrazol-5-yl)methyl)spiro[piperidine-4,8′-thiazolo[4,5-e]indole]-6′(7′H)-carboxamide]	10 µM	10 µM	22.6 nM	–	–	–
O=C(NCc1cnc(Cl)s1)N1CC2(CCN(C/C=C/c3ccc(Cl)cc3)CC2)c2cc(OC(F)(F)F)ccc21 [Example 189, (E)-1′-(3-(4-chlorophenyl)allyl)-N-((2-chlorothiazol-5-yl)methyl)-5-(trifluoromethoxy)spiro[indoline-3,4′-piperidine]-1-carboxamide]	100 µM	14 µM	792 nM	–	–	–
O=C(NCc1ccnc(F)c1)N1CC2(CCN(C/C=C/c3ccc(Cl)cc3)CC2)c2c1ccc(Cl)c2Cl [Example 62, (E)-4,5-dichloro-1′-(3-(4-chlorophenyl)allyl)-N-((2-fluoropyridin-4-yl)methyl)spiro[indoline-3,4′-piperidine]-1-carboxamide]	–	–	329 nM	3.3 µM	10 µM	–
O=C(NCc1ccnc(C(F)(F)F)c1)N1CC2(CCN(C/C=C/c3ccc(Cl)cc3)CC2)c2cc(OC(F)(F)F)ccc21 [Example 179, (E)-1′-(3-(4-chlorophenyl)allyl)-5-(trifluoromethoxy)-N-((2-(trifluoromethyl)pyridin-4-yl)methyl)spiro[indoline-3,4′-piperidine]-1-carboxamide]	7.6 µM	3.3 µM	371 nM	–	–	–
O=C(NCc1ccnc(Cl)c1)N1CC2(CCN(C/C=C/c3ccc(F)cc3)CC2)c2c1ccc1scnc21 [Example 38, (E)-N-((2-chloropyridin-4-yl)methyl)-1-(3-(4-fluorophenyl)allyl)spiro[piperidine-4,8′-thiazolo[4,5-e]indole]-6′(7′H)-carboxamide]	–	–	45.6 nM	10 µM	3.3 µM	–
O=C(NCc1ccnc(Cl)c1)N1CC2(CCN(C/C=C/c3ccc(Cl)c(Cl)c3)CC2)c2cc(OC(F)(F)F)ccc21 [Example 55, (E)-N-((2-chloropyridin-4-yl)methyl)-1′-(3-(3,4-dichlorophenyl)allyl)-5-(trifluoromethoxy)spiro[indoline-3,4′-piperidine]-1-carboxamide]	–	–	876 nM	3.3 µM	5.7 µM	–
O=C(NCc1ccnc(F)c1)N1CC2(CCN(C/C=C/c3ccc(Cl)c(Cl)c3)CC2)c2c(Br)cccc21 [Example 103, 4-bromo-1′-[(E)-3-(3,4-dichlorophenyl)allyl]-N-[(2-fluoro-4-pyridyl)methyl]spiro[indoline-3,4′-piperidine]-1-carboxamide]	–	–	466 nM	3.3 µM	5.7 µM	–
O=C(NCc1ccnc(Cl)c1)N1CC2(CCN(C/C=C/c3ccc(Cl)cc3)CC2)c2c1cccc2C(F)(F)F [Example 149, (E)-1′-(3-(4-chlorophenyl)allyl)-N-((2-chloropyridin-4-yl)methyl)-4-(trifluoromethyl)spiro[indoline-3,4′-piperidine]-1-carboxamide]	–	–	396 nM	5.1 µM	8.1 µM	–
O=C(NCc1ccnc(Cl)c1)N1CC2(CCN(C/C=C/c3ccc(Cl)cc3)CC2)c2cc(OC(F)(F)F)ccc21 [Example 147, (E)-1′-(3-(4-chlorophenyl)allyl)-N-((2-chloropyridin-4-yl)methyl)-5-(trifluoromethoxy)spiro[indoline-3,4′-piperidine]-1-carboxamide]	–	–	322 nM	3.9 µM	–	4.8 µM
COc1ccc2ccc(CN3CCC4(CC3)CN(C(=O)NCc3ccnc(F)c3)c3ccc(C#N)cc34)c(C)c2n1 [Example 117, 5-cyano-N-[(2-fluoro-4-pyridyl)methyl]-1′-[(2-methoxy-8-methyl-7-quinolyl)methyl]spiro[indoline-3,4′-piperidine]-1-carboxamide]	–	–	191 nM	10 µM	10 µM	–
O=C(NCc1ccnc(Cl)c1)N1CC2(CCN(C/C=C/c3ccc(Cl)cc3)CC2)c2cc(S(=O)(=O)C(F)(F)F)ccc21 [Example 78, (E)-1′-(3-(4-chlorophenyl)allyl)-N-((2-chloropyridin-4-yl)methyl)-5-(trifluoromethylsulfonyl)spiro[indoline-3,4′-piperidine]-1-carboxamide]	–	–	1290 nM	100 µM	1 µM	–
O=C(NCc1ccnc(F)c1)N1CC2(CCN(C/C=C/c3ccc(F)cc3)CC2)c2ccc(C(F)(F)F)cc21 [Example 101, (E)-1′-(3-(4-fluorophenyl)allyl)-N-((2-fluoropyridin-4-yl)methyl)-6-(trifluoromethyl)spiro[indoline-3,4′-piperidine]-1-carboxamide]	3.3 µM	10 µM	65.2 nM	–	–	–
O=C(NCc1ccnc(Cl)c1)N1CC2(CCN(C/C=C/c3ccc(Cl)cc3)CC2)c2cc(Cl)c(Cl)cc21 [Example 142, (E)-5,6-dichloro-1′-(3-(4-chlorophenyl)allyl)-N-((2-chloropyridin-4-yl)methyl)spiro[indoline-3,4′-piperidine]-1-carboxamide]	3.3 µM	7.6 µM	107 nM	–	–	–
Cc1ccc2c(c1)C1(CCN(C/C=C/c3ccc(Cl)c(Cl)c3)CC1)CN2C(=O)NCc1ccnc(Cl)c1 [Example 123, (E)-N-((2-chloropyridin-4-yl)methyl)-1′-(3-(3,4-dichlorophenyl)allyl)-5-methylspiro[indoline-3,4′-piperidine]-1-carboxamide]	1 µM	10.2 µM	20.8 nM	–	–	–
O=C(NCc1ccnc(F)c1)N1CC2(CCN(C/C=C/c3ccc(Cl)cc3)CC2)c2ccc(-c3ccccc3OC(F)(F)F)cc21 [Example 73, (E)-1′-(3-(4-chlorophenyl)allyl)-N-((2-fluoropyridin-4-yl)methyl)-6-(2-(trifluoromethoxy)phenyl)spiro[indoline-3,4′-piperidine]-1-carboxamide]	–	–	29.5 nM	100 µM	3.3 µM	–
N#Cc1ccc(/C=C/CN2CCC3(CC2)CN(C(=O)NCc2ccnc(Cl)c2)c2cccc(C(F)(F)F)c23)cc1 [Example 99, (E)-N-((2-chloropyridin-4-yl)methyl)-1′-(3-(4-cyanophenyl)allyl)-4-(trifluoromethyl)spiro[indoline-3,4′-piperidine]-1-carboxamide]	–	–	306 nM	10 µM	5.7 µM	–
O=C(NCc1ccnc(Cl)c1)N1CC2(CCN(C/C=C/c3ccc(Cl)cc3)CC2)c2cc(F)c(C(F)(F)F)cc21 [Example 126, (E)-1′-(3-(4-chlorophenyl)allyl)-N-((2-chloropyridin-4-yl)methyl)-5-fluoro-6-(trifluoromethyl)spiro[indoline-3,4′-piperidine]-1-carboxamide]	1 µM	10 µM	33 nM	–	–	–
O=C(NCc1ccnc(F)c1)N1CC2(CCN(C/C=C/c3ccc(Cl)cc3)CC2)c2ccc(OC(F)(F)F)cc21 [Example 127, (E)-1′-(3-(4-chlorophenyl)allyl)-N-((2-fluoropyridin-4-yl)methyl)-6-(trifluoromethoxy)spiro[indoline-3,4′-piperidine]-1-carboxamide]	–	–	78.4 nM	1 µM	10 µM	–
O=C(NCc1cnc(Cl)s1)N1CC2(CCN(C/C=C/c3ccc(Cl)cc3)CC2)c2c(OC(F)(F)F)cccc21 [Example 95, (E)-1′-(3-(4-chlorophenyl)allyl)-N-((2-chlorothiazol-5-yl)methyl)-4-(trifluoromethoxy)spiro[indoline-3,4′-piperidine]-1-carboxamide]	–	–	1010 nM	100 µM	3.3 µM	–
Cc1noc(C)c1-c1ccc2c(c1)C1(CCN(C/C=C/c3ccc(Cl)cc3)CC1)CN2C(=O)NCc1ccnc(-c2c(C)noc2C)c1 [Example 186, (E)-1′-(3-(4-chlorophenyl)allyl)-5-(3,5-dimethylisoxazol-4-yl)-N-((2-(3,5-dimethylisoxazol-4-yl)pyridin-4-yl)methyl)spiro[indoline-3,4′-piperidine]-1-carboxamide]	–	–	1360 nM	100 µM	3.3 µM	–
